For data set [1], the system named is T-47D human breast cancer cell line. The experiment in a line: cells. The data set is classed as cell-based. The note with it: for IC50: Homo sapiens, T47D, read-out: Cytotoxicity, IC50, T-47D.
The next data set is described as follows: in vitro. The data set is classed as cell-based. To be noted: human.
Data set [2] concerns MCF-7 cells. The data set is described as follows: Wound scratch migration assay, MCF-7. It is filed as cell-based, human. The note with it: MCF-7, concentrations below EC50, 72 h. On the procedure: (§1) Attached to special migration plate plastic bottom MCF-7 or MDA-MB-231 cells were separated by a silicone insert (Culture-insert 2 Well 24, ibiTreat). After removing an insert, gap between the cells was 500 ± 50 μm. Cell debris and floating cells were deleted by washing twice with PBS; 10 μM of 5 mM initial solution of CFDA SE ((5,6)-carboxyfluorescein succinimidyl ester) (LumiTrace CFDA SE kit, Lumiprobe, Moscow, Russia) in DMSO was dissolved in PBS and added to cells for 5 min at 37 °C; after washing twice with PBS, the fresh culture medium was added. Then, cells were treated with various concentrations of glycosides or culture medium only (vehicle control) and left for 24 and 72 h. Cell migration into the wound area was observed under a fluorescence microscope (MIB-2-FL, LOMO, Russia) with objective 10× magnification.

Data set [3] has as its system MCF-7 human breast cancer cell line. The data set is described as follows: cells. It is filed as cell-based. The note with it: for IC50: read-out: Cytotoxicity, IC50, MCF-7; for Selectivity Index (SI), MCF-7: ratio of IC50 for healthy (MCF-10A) and cancer cells.
The subject of data set [4] is MDA-MB-231 cells. The experiment in a line: Colony formation (clonogenic) assay, MDA-MB-231. The data set is classed as cell-based, human. The note with it: 10 days; for inhibitory effect on the formation of colonies: MDA-MB-231, concentration 2 μM. On the procedure:
(§2) The influence of glycosides on colony formation by MCF-7 or MDA-MB-231 cells was tested by the clonogenic assay. Cell density: 1 × 10^3 for MDA-MB-231 and 0.3 × 10^3 for MCF-7 cells per well; cell culture: MEM media, 10% FBS, 10,000 U/mL of penicillin, and 10,000 μg/mL of streptomycin supplemented or not (control) with different concentration of glycosides; incubation conditions: 10 days, 37 °C, atmosphere with 5% CO2; obtained: visible to eye colonies (at least 50 cells per colony); fixation with methanol (25 min); staining with 0.5% solution of crystal violet (25 min); washing and air-drying of plates.

Data set [5] concerns triple-negative MDA-MB-231 human breast cancer cell line. The data set is described as follows: cells. It is filed as cell-based. To be noted: for IC50: Homo sapiens, read-out: Cytotoxicity, IC50, MDA-MB-231; for Selectivity Index (SI), MDA-MB-231: ratio of IC50 for healthy (MCF-10A) and cancer cells.
Data set [6] relates to MCF-7 cells. The data set is described as follows: Colony formation (clonogenic) assay, MCF-7. It is filed as cell-based, human. To be noted: MCF-7, concentration 2 μM, 10 days. As to the method: as §2
In the next data set the test system is human erythrocytes. The experiment in a line: Hemolytic activity against human erythrocytes. It is filed as cell-based. To be noted: human erythrocytes; for HC50: Erythrocyte, 1 h at 37 °C, dose causing lysis of 50% erythrocytes, read-out: ED50, Erythrocytes (hemolytic activity); for hemolytic activity (in words): concentration range up to 50 µM. As to the method:
Human blood (B(III) Rh+) was used to obtain erythrocytes by centrifuging 450× g three times for 5 min with phosphate-buffered saline (PBS) (pH 7.4) at 4 °C on centrifuge LABOFUGE 400R (Heraeus, Hanau, Germany). Ice-cold PBS (pH 7.4) was used for resuspension of erythrocytes residue to a final optical density of 1.5 at 700 nm, which was kept on ice. Then, 20 µL of tested compound solution or control—djakonovioside A1 [5]—were added to 180 µL of erythrocyte suspension in V-bottom 96-well plates and exposed for 1 h at 37 °C. Next, centrifugation at 900× g for 10 min on laboratory centrifuge LMC-3000 (Biosan, Riga, Latvia), led to layers’ separation, and 100 µL of supernatant was carefully decanted and transferred into new flat-plate each. The values of erythrocyte lysis were measured on microplate photometer Multiskan FC (Thermo Fisher Scientific, Waltham, MA, USA) at λ = 570 nm as hemoglobin concentration in supernatant. The effective dose, causing lysis of 50% erythrocytes (ED50), was calculated with SigmaPlot 14.0 software. All the experiments were carried out in triple repetitions, p ≤ 0.05.

The subject of data set [7] is human breast cancer cell lines MCF-7, T-47D and MDA-MB-231. The experiment in a line: Cytotoxic activity (MTT assay), statements on the human breast cancer cell lines together. The data set is classed as cell-based. The source says: Human erythrocytes were purchased from the Station of Blood Transfusion, Vladivostok. Human mammary epithelial cell line MCF-10A CRL-10317, human breast cancer cell lines T-47D HTB-133, MCF-7 HTB-22, and MDA-MB-231 CRM-HTB-26 were received from ATCC (Manassas, VA, USA). Culturing conditions: medium of RPMI-1640 with 1% penicillin/streptomycin (Biolot, St. Petersburg, Russia) and 10% fetal bovine serum (FBS) (Biolot, St. Petersburg, Russia) for T-47D cell line; Minimum Essential Medium (MEM) with 1% penicillin/streptomycin sulfate (Biolot, St. Petersburg, Russia) and FBS (Biolot, St. Petersburg, Russia) to a final concentration of 10% for MCF-7 and MDA-MB-231 cells; DMEM/F12 medium with 10% FBS, 20 ng/mL EGF, […], 100 ng/mL cholera toxin, 10 μg/mL insulin, and 1% penicillin/streptomycin (Bioinnlabs, Russia) for MCF-10A cell line.
Methodology: to each well of 96-well plates, the cell suspension (180 µL) with solution (20 µL) of tested glycoside in the certain concentration was placed (MCF-10A, MCF-7, T-47D, and MDA-MB-231—7 × 10^3 cells per well) and incubated in the atmosphere with 5% CO2 at 37 °C for 24 h. The times of incubation of cucumarioside A2-5 (6) and djakonoviosides C1 (1) and E1 (3), at concentrations of 0.5–12.0 μM with T-47D, MCF-7, or MDA-MB-231 cells, were 24, 48, and 72 hrs. Then, the solutions of tested compounds with medium were replaced by 100 µL of fresh medium, and 10 µL of 3-(4,5-dimethylthiazol-2-yl)-2,5-diphenyltetrazolium bromide (MTT) (PanReac, AppliChem, Darmstadt, Germany) stock solution (5 mg/mL) was added to each well and incubated for 4 h, followed by the addition of 100 µL of SDS-HCl solution (1 g SDS/10 mL d-H2O/17 µL 6 N HCl) and further incubated for 18 h. Multiskan FC microplate photometer (Thermo Fisher Scientific, Waltham, MA, USA) was used to measure the absorbance of the converted dye formazan at 570 nm. The concentration caused 50% cell metabolic activity inhibition (IC50), which expresses the cytotoxic activity of each glycoside. The experiments were conducted in triplicate, p ≤ 0.05.
In general terms: Formazan colour is commonly taken as a measure of viable cells.

For data set [8], the system named is MDA-MB-231 cells. The data set is described as follows: Wound scratch migration assay, MDA-MB-231. It is filed as cell-based, human. To be noted: MDA-MB-231, concentration 1 μM, 24 h of incubation. On the procedure: as §1

“Also recorded” adds a separate entry of the source. Counter-ions that a name gives are not always drawn. Like-named read-outs stand apart in the source and are kept apart here.

Usually IC50 stands for the concentration needed to halve the response being measured. The EC50 is the concentration giving half of the maximal effect. The melting point is the temperature of the solid-liquid transition.

`C=C(C)CCCC1(C)OC(=O)C23CCC4C(=CCC5C(C)(C)C(OC6OCC(OS(=O)(=O)O)C(O)C6OC6OC(CO)C(OC7OC(COS(=O)(=O)O)C(O)C(OC8OC(COS(=O)(=O)O)C(O)C(OC)C8O)C7O)C(O)C6O)CCC45C)C2(C)CC(OC(C)=O)C13` [djakonovioside E1, 3β-O-[6-O-sodium sulfate-3-O-methyl-β-D-glucopyranosyl-(1→3)-6-O-sodium sulfate-β-D-glucopyranosyl-(1→4)-β-D-glucopyranosyl-(1→2)-4-O-sodium sulfate-β-D-xylopyranosyl]-16β-acetoxyholosta-7,25-dien]: the IC50 is > 50 µM in data set [1] (24 h); 1.52 ± 0.14 µM in [3] (Homo sapiens, MCF7, 24 h); 2.19 ± 0.17 µM in data set [5] (MDA-MB-231, 24 h). Further, the half-maximal inhibitory concentration (IC50) at 24 h in the data set “in vitro” was > 50 µM. Also, in the data set on MCF-7 cells [2], the “migration of MCF-7 cells (in words)” value is “reliable blockage of the migration”. For the same compound, in [3] (Homo sapiens, MCF7, MTT, 48 h incubation, read-out: EC50, MCF-7 cells, 48 h incubation (antiproliferative effect)), the 50% effective concentration (EC50) was determined as 0.78 ± 0.32 µM. In addition, in data set [3], the “Selectivity Index (SI), MCF-7” value is reported as >32.89. The “inhibitory effect on the formation of colonies” value in the data set with MDA-MB-231 cells [4] is 35.68 ± 2.00 % of the control; in the data set with MCF-7 cells [6], 30.73 ± 0.49 % of the control. Further, the “Selectivity Index (SI), MDA-MB-231” value in data set [5] is given as >22.83. Also, the HC50 with human erythrocytes came to 21.7 ± 0.94 µM. Besides, the “hemolytic activity (in words)” value in the data set with human erythrocytes is “weakly hemolytic; also recorded: low hemolytic activity”.
Regarding `COC1C(O)C(CO)OC(OC2C(O)C(CO)OC(OC3C(C)OC(OC4C(OC5CCC6(C)C7CCC89C(=O)OC(C)(CC(=O)CC(C)C)C8C(OC(C)=O)CC9(C)C7=CCC6C5(C)C)OCC(OS(=O)(=O)O)C4O)C(OC4OCC(O)C(O)C4O)C3O)C2O)C1O` (centres unmarked) [cucumarioside A2-5], the half-maximal inhibitory concentration (IC50) in [1] (MTT, 24 h incubation) was found to be 5.81 ± 0.86 µM; in “in vitro” (MTT, 24 h incubation, read-out: Cytotoxicity, IC50, MCF-10A), 14 ± 1.03 µM; in data set [3] (Homo sapiens, MCF7, MTT, 24 h incubation) it was 25.7 ± 1.49 µM; in [5] (MDA-MB-231, MTT, 24 h incubation) it was 2.58 ± 0.1 µM. In addition, the “Selectivity Index (SI), T-47D” value in data set [1] (ratio of IC50 for healthy (MCF-10A) and cancer cells) is 2.41. Also, in [3], the “Selectivity Index (SI), MCF-7” value was determined as 0.55. The “Selectivity Index (SI), MDA-MB-231” value in data set [5] is recorded as 5.43. Moreover, the “cytotoxicity on prolonged incubation (in words)” value in data set [7] (incubation for 48 and 72 h, 1 on MDA-MB-231, 6 on T-47D and MDA-MB-231) is given as “did not lose cytotoxicity over time”. For the same compound, the “inhibition of cell migration (scratch assay)” value in the data set with MDA-MB-231 cells [8] (1 µM) is listed as “about 85 % as compared to the control”; with MDA-MB-231 cells [8] (listed as Cucumarioside A2-5, 1 µM), 85 % as compared to the control. Further, in the data set with human erythrocytes, the HC50 amounted to 1.63 ± 0.13 µM.
For the compound `COC1C(O)C(COS(=O)(=O)O)OC(OC2C(O)C(COS(=O)(=O)O)OC(OC3C(C)OC(OC4C(OC5CCC6(C)C7=CCC8(C)C(C(C)=O)CCC8(C)C7CCC6C5(C)C)OCC(OS(=O)(=O)O)C4O)C(OC4OCC(O)C(O)C4O)C3O)C2O)C1O` (centres unmarked) (hydrate or solvate) [isokoreoside A], the melting point worked out at 215 °C.
`C=C(C)CCCC1(C)OC(=O)C23CCC4C(=CCC5C(C)(C)C(OC6OCC(OS(=O)(=O)O)C(O)C6OC6OCC(OC7OC(CO)C(O)C(OC8OC(CO)C(O)C(OC)C8O)C7O)C(O)C6OC6OCC(O)C(O)C6O)CCC45C)C2(C)CC(OC(C)=O)C13` [djakonovioside C1, 3β-O-{3-O-methyl-β-D-glucopyranosyl-(1→3)-β-D-glucopyranosyl-(1→4)-[(1→2)-β-D-xylopyranosyl]-β-D-xylopyranosyl-(1→2)-4-O-sodium sulfate-β-D-xylopyranosyl}-16β-acetoxyholosta-7,25-dien]: the half-maximal inhibitory concentration (IC50) in data set [1] (24 h) was found to be 16.8 ± 0.76 µM; in data set [3] (Homo sapiens, MCF7, 24 h), 38.6 ± 2.36 µM; in data set [5] (MDA-MB-231, 24 h) it was 7.67 ± 0.32 µM. The compound also returned an IC50 at 24 h in “in vitro” of 21.8 ± 0.72 µM. Also, the “Selectivity Index (SI), MCF-7” value in [3] is on record as 0.56. In addition, the “inhibitory effect on the formation and growth of colonies” value in the data set with MDA-MB-231 cells [4] (MDA-MB-231, concentration 1 μM) is given as “approximately 25 % of the control”. Also, the “inhibitory effect on the formation of colonies” value with MDA-MB-231 cells [4] is listed as “approximately 25 % of the control”. Also, the “Selectivity Index (SI), MDA-MB-231” value in data set [5] is recorded as 2.84. For the same compound, the “cytotoxicity on prolonged incubation (in words)” value in data set [7] is “did not lose cytotoxicity over time”. Moreover, the HC50 in the data set on human erythrocytes amounted to 8.55 ± 0.04 µM. For the same compound, the “hemolytic activity (in words)” value in the data set on human erythrocytes (listed as Djakonovioside C1) is listed as “slightly lower activity”.
